Experimental findings from patent US20090221567A1, “MUSCARINIC RECEPTOR AGONISTS, COMPOSITIONS, METHODS OF TREATMENT THEREOF, AND PROCESSES FOR PREPARATION THEREOF 177” (ASTRAZENECA AB, priority 2008, published 2009) are described below.

A value given as a limit tells only on which side of the number the result lay.

This assay addresses T1, human M4 receptor (human Muscarinic receptor subtype 4) (Homo sapiens, UniProt P08173).
T1 construct: purchased Perkin-Elmer RBHM4M; host or cells: membranes from CHO cells expressing the cloned receptor
T1 sequence (P08173 1-479): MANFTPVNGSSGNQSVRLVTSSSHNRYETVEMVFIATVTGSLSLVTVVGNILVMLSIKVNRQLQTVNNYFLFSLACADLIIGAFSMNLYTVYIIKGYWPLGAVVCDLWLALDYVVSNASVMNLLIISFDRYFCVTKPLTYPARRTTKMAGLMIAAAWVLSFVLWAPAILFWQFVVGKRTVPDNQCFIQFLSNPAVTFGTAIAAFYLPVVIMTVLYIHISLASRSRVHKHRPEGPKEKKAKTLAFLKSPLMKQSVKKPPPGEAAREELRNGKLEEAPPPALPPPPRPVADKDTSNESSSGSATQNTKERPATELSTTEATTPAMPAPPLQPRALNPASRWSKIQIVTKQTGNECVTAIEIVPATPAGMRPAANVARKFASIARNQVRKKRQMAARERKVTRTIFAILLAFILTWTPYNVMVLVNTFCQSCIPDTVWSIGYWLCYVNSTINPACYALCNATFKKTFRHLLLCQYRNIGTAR
The assay can be described thus: hM4 receptor GTPγS binding. The assay is classed as biochemical. The following applies: CHO membranes, [35S]GTPγS binding. How it is done:
Membranes produced from Chinese hamster ovary cells (CHO) expressing the cloned human M4 receptor (human Muscarinic receptor subtype 4, gene bank access NM_000741), are obtained from Perkin-Elmer (RBHM4M). The membranes are thawed at 37° C., passed 3 times through a 23-gauge blunt-end needle, diluted in the GTPγS binding buffer (50 mM Hepes, 20 mM NaOH, 100 mM NaCl, 1 mM EDTA, 5 mM MgCl2, pH 7.4, 100 μM DTT). The EC50, IC50 and Emax of the compounds of the invention are evaluated from 10-point dose-response curves (three fold concentration range) done in 60 μl in 384-well non-specific binding surface plate (Corning). Ten microliters from the dose-response curves plate (5× concentration) are transferred to another 384 well plate containing 25 μl of the following: 10 μg of hM4 membranes, 500 μg of Flashblue beads (Perkin-Elmer) and GDP 40 μM. An additional 15 μl containing 3.3× (60,000 dpm) of GTPγS (0.4 nM final) are added to the wells resulting in a total well volume of 50 μl. Basal and maximal stimulated [^35S]GTPγS binding are determined in absence and presence of 30 μM final of acetylcholine agonist. The membranes/beads mix are pre-incubated for 15 minutes at room temperature with 40 μM GDP prior to distribution in plates (20 μM final). The reversal of acetylcholine-induced stimulation (10 μM final) of [^35S]GTPγS binding is used to assay the antagonist properties (IC50) of the compounds. The plates are incubated for 60 minutes at room temperature then centrifuged at 400 rpm for 5 minutes. The radioactivity (cpm) is counted in a Trilux (Perkin-Elmer).
Values of EC50, IC50 and Emax are obtained using sigmoidal fits of a non-linear curve-fitting program (XLfit version 4.2.2 Excel add-in version 4.2.2 build 18 math 1Q version 2.1.2 build 18) of percent stimulated [^35S]GTPγS binding vs. log(molar ligand). All pEC50 and pIC50 values are reported as arithmetic means±standard error of mean of ‘n’ independent experiments.
A general note: Binding of GTPγS marks nucleotide exchange on a G protein.

Usually EC50 stands for the midpoint of the concentration-response curve. Read a high EC50 as a less potent agent. Take `CCOC(=O)N1CCC(C)(N2CCC(N3C(=O)CO[C@H]4CCCC[C@@H]43)CC2)C1` (single isomer, unassigned) [Example 18]: the concentration giving a half-maximal response (EC50) came to 8.97 µM. This lies in the single-digit micromolar range.
The result for `CCOC(=O)N1CCC(C)(N2CCC(N3C(=O)CO[C@H]4CCCC[C@@H]43)CC2)C1` (single isomer, unassigned) [Example 19] reads > 30 µM.
The result for `CCOC(=O)N1CCC(N2CCC(N3C(=O)NC[C@H]4CCCC[C@@H]43)CC2)CC1` [Example 1, Ethyl 4-[4-[(4aR,8aS)-2-oxo-3,4,4a,5,6,7,8,8a-octahydroquinazolin-1-y]-1-piperidyl]piperidine-1-carboxylate] reads 1.7 µM; that for `CC(C)OC(=O)N1CCC(N2CCC(N3C(=O)NC[C@H]4CCCC[C@@H]43)CC2)CC1` [Example 2, Propan-2-yl 4-[4-[(4aR,8aS)-2-oxo-3,4,4a,5,6,7,8,8a-octahydroquinazolin-1-yl]-1-piperidyl]piperidine-1-carboxylate], > 20 µM.
The result for `O=C(C1CC1)N1CCC(N2CCC(N3C(=O)NC[C@H]4CCCC[C@@H]43)CC2)CC1` [Example 3, (4aR,8aS)-1-[1-[1-(cyclopropanecarbonyl)-4-piperidyl]-4-piperidyl]-3,4,4a,5,6,7,8,8a-octahydroquinazolin-2-one] reads > 30 µM; that for `Cc1ccccc1C(=O)N1CCC(N2CCC(N3C(=O)NC[C@H]4CCCC[C@@H]43)CC2)CC1` [Example 4, (4aR,8aS)-1-[1-[1-(2-methylbenzoyl)-4-piperidyl]-4-piperidyl]-3,4,4a,5,6,7,8,8a-octahydroquinazolin-2-one], > 30 µM; that for `CC(C)OC(=O)N1CCC(N2CCC(N3C(=O)N(C)C[C@H]4CCCC[C@@H]43)CC2)CC1` [Example 6, Propan-2-yl 4-[4-[(4aR,8aS)-3-methyl-2-oxo-4a,5,6,7,8,8a-hexahydro-4H-quinazolin-1-yl]-1-piperidyl]piperidine-1-carboxylate], > 30 µM.
As for `CCOC(=O)N1CCC(C)(N2CCC(N3C(=O)NC[C@H]4CCCC[C@@H]43)CC2)CC1` [Example 7, Ethyl 4-[4-[(4aR,8aS)-2-oxo-3,4,4a,5,6,7,8,8a-octahydroquinazolin-1-yl]-1-piperidyl]-4-methyl-piperidine-1-carboxylate], the EC50 was > 1.6 µM.
The result for `CC(C)OC(=O)N1CCC(C)(N2CCC(N3C(=O)NC[C@H]4CCCC[C@@H]43)CC2)CC1` [Example 8, Propan-2-yl 4-[4-[(4aR,8aS)-2-oxo-3,4,4a,5,6,7,8,8a-octahydroquinazolin-1-yl]-1-piperidyl]-4-methyl-piperidine-1-carboxylate] reads > 30 µM; that for `CCOC(=O)N1CCC(N2CCC(N3C(=O)CO[C@H]4CCCC[C@@H]43)CC2)CC1` [Example 9, Ethyl 4-[4-[(1S,6S)-9-oxo-7-oxa-10-azabicyclo[4.4.0]dec-10-yl]-1-piperidyl]piperidine-1-carboxylate], 4.3 µM; that for `CC(C)OC(=O)N1CCC(N2CCC(N3C(=O)CO[C@H]4CCCC[C@@H]43)CC2)CC1` [Example 10, Propan-2-yl 4-[4-[(1S,6S)-9-oxo-7-oxa-10-azabicyclo[4.4.0]dec-10-yl]-1-piperidyl]piperidine-1-carboxylate], > 30 µM.
Take `Cc1ccccc1C(=O)N1CCC(N2CCC(N3C(=O)CO[C@H]4CCCC[C@@H]43)CC2)CC1` [Example 11, (1S,6S)-10-[1-[1-(2-methylbenzoyl)-4-piperidyl]-4-piperidyl]-7-oxa-10-azabicyclo[4.4.0]decan-9-one]: the concentration giving a half-maximal response (EC50) is > 30 µM.
Then `Cn1cccc1C(=O)N1CCC(N2CCC(N3C(=O)CO[C@H]4CCCC[C@@H]43)CC2)CC1` [Example 12, (1S,6S)-10-[1-[1-(1-methylpyrrole-2-carbonyl)-4-piperidyl]-4-piperidyl]-7-oxa-10-azabicyclo[4.4.0]decan-9-one], with > 30 µM.
Take `CCOC(=O)N1CC[C@H](N2CCC(N3C(=O)CO[C@H]4CCCC[C@@H]43)CC2)C1` [Example 13, Ethyl (3S)-3-[4-[(1S,6S)-9-oxo-7-oxa-10-azabicyclo[4.4.0]dec-10-yl]-1-piperidyl]pyrrolidine-1-carboxylate]: the EC50 was > 30 µM.
The result for `CC(C)OC(=O)N1CCC(N2CCC(N3C(=O)CO[C@@H]4CCCC[C@H]43)CC2)CC1` [Example 14, Propan-2-yl 4-[4-[(1R,6R)-9-oxo-7-oxa-10-azabicyclo[4.4.0]dec-10yl]-1-piperidyl]piperidine-1-carboxylate] reads > 30 µM.
Then `CCOC(=O)N1CCC(N2CCC(N3C(=O)OC[C@H]4CCCC[C@@H]43)CC2)CC1` [Example 15, Ethyl 4-[4-[(1S,6S)-9-oxo-8-oxa-10-azabicyclo[4.4.0]dec-10-yl]-1-piperidyl]piperidine-1-carboxylate], with > 30 µM.
